Data: ChEMBL document CHEMBL3734665, “Design, synthesis and evaluation of antiestrogen and histone deacetylase inhibitor molecular hybrids” (Bioorg Med Chem, 2015)

How the values were obtained:
[1] = molecular target: T1, Estrogen receptor (Homo sapiens) (UniProt P03372); assay: (§1) Antagonist activity at luciferase-fused ERalpha in human HEK293 cells expressing eYFP assessed as reduction of E2-induced estrogenic activity after 2 hrs by BRET assay; assay type: cell-based
T1 sequence (whole entry): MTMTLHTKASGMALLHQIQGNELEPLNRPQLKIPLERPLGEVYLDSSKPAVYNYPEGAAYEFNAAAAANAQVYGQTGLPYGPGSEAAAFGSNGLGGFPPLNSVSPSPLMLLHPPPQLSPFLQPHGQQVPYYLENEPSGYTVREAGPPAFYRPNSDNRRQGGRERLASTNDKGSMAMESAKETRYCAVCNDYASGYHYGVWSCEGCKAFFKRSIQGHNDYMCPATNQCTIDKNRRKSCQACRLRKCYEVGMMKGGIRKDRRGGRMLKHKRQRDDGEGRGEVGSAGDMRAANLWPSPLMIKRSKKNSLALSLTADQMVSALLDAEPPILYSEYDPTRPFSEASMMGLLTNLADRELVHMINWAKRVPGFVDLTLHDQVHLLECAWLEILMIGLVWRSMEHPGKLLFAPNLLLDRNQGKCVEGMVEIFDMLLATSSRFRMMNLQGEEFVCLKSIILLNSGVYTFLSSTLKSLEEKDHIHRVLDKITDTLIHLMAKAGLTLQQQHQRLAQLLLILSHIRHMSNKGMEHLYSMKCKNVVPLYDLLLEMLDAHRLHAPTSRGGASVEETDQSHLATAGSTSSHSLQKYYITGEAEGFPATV

Estrogen receptor [2] = molecular target: T2, Estrogen receptor (Homo sapiens, UniProt P03372); assay: as §1; assay type: cell-based
T2 sequence (P03372 whole entry): T1 sequence (whole entry)

Histone deacetylase 3 = Histone deacetylase 3 (Homo sapiens, UniProt O15379); assay: Inhibition of human recombinant HDAC3 using Boc-Lys(Ac)-AMC as substrate after 30 mins by fluorescence assay
Histone deacetylase 3, sequence (O15379 whole entry): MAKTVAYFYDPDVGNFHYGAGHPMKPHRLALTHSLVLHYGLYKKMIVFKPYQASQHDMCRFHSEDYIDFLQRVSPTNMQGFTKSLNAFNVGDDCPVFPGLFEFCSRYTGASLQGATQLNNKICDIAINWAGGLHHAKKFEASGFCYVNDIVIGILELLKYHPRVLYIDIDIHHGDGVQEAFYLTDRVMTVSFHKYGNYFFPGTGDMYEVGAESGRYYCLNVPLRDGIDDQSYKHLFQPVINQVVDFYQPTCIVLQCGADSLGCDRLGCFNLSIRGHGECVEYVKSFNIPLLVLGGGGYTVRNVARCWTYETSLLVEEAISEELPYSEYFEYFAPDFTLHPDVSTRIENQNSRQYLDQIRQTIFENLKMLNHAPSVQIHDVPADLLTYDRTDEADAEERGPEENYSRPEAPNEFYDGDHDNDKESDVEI

[3] = molecular target: T3, Protein deacetylase HDAC6 (Homo sapiens, UniProt Q9UBN7); assay: Inhibition of human recombinant HDAC6 using Boc-Lys(Ac)-AMC as substrate after 30 mins by fluorescence assay
T3 sequence (Q9UBN7 whole entry): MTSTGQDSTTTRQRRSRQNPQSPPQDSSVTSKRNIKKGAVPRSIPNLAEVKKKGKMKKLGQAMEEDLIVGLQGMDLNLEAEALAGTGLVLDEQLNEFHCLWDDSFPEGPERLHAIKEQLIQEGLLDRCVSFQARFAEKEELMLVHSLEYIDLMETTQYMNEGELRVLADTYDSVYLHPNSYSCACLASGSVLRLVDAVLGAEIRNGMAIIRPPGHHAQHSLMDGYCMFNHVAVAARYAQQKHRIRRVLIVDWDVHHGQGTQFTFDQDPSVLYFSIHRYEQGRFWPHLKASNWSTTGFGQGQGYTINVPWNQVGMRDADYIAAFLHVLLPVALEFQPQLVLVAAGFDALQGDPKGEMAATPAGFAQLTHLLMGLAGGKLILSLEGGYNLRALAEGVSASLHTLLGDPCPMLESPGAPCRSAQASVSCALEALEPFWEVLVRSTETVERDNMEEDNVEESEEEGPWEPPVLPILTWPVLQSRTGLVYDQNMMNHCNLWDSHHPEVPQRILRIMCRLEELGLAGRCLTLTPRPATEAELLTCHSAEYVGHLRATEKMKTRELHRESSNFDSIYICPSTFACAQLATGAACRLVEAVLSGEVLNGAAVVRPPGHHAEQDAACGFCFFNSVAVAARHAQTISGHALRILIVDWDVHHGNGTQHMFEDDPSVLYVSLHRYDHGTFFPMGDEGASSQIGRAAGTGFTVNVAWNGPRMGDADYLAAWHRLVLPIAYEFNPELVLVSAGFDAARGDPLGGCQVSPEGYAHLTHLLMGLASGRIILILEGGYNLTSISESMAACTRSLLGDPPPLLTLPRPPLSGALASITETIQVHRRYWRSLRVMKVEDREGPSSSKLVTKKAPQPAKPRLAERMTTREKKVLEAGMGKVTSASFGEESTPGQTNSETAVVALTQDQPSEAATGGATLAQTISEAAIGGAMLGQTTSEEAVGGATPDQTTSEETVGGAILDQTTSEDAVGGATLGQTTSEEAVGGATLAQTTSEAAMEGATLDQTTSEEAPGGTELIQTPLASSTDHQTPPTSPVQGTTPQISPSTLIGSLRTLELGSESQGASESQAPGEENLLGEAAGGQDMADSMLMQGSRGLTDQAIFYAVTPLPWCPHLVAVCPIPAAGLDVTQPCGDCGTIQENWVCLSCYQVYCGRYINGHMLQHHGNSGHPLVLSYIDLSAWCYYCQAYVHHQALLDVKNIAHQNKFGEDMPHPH

MCF7 = assay: Antiproliferative activity against human MCF7 cells treated for 48 hrs followed by refreshed every 96 hrs measured on day 10 by Lowry assay; assay type: functional, cell-based
Estrogen receptor [4] = molecular target: T2, Estrogen receptor; assay: Antagonist activity at ERalpha in human T47D-KBLuc cells assessed as inhibition of E2-induced transcriptional activity by luciferase reporter gene assay; assay type: cell-based
MDA-MB-231 = assay: Antiproliferative activity against human MDA-MB-231 cells treated for 48 hrs followed by refreshed every 96 hrs measured on day 10 by Lowry assay; assay type: functional, cell-based

| inhibition [1] | IC50 (Estrogen receptor [2]) | IC50 (Histone deacetylase 3) | IC50 [3] | IC50 (MCF7) | IC50 (Estrogen receptor [4]) | IC50 (MDA-MB-231) | SMILES |
| --- | --- | --- | --- | --- | --- | --- | --- |
| Dose-dependent effect | 2550 nM | > 5000 nM | > 50000 nM | 9110 nM | 2100 nM |  | CCCCN(O)C(=O)CCCCCCCCCC[C@@H]1Cc2cc(O)ccc2[C@H]2CC[C@]3(C)[C@@H](O)CC[C@H]3[C@H]12 |
| Dose-dependent effect | 510 nM | 960 nM | 1150 nM | 2930 nM | 1060 nM |  | C[C@]12CC[C@@H]3c4ccc(O)cc4C[C@@H](CCCCCCCCCCC(=O)NO)[C@H]3[C@@H]1CC[C@@H]2O |
| Dose-dependent effect | 210 nM | 3180 nM | > 50000 nM | 1900 nM | 720 nM |  | C[C@]12CC[C@@H]3c4ccc(O)cc4C[C@@H](CCCCCCCCCCC(=O)Nc4ccccc4N)[C@H]3[C@@H]1CC[C@@H]2O |

More lines, now with the values behind:

| SMILES | inhibition [1] | IC50 (Estrogen receptor [2]) | IC50 (Histone deacetylase 3) | IC50 [3] | IC50 (MCF7) | IC50 (Estrogen receptor [4]) | IC50 (MDA-MB-231) |
| --- | --- | --- | --- | --- | --- | --- | --- |
| CCCCN(O)C(=O)c1cccc(NC(=O)CCCCCS[C@@H]2Cc3cc(O)ccc3[C@H]3CC[C@]4(C)[C@@H](O)CC[C@H]4[C@@H]32)c1 | Dose-dependent effect | 50 nM | 1550 nM | 43700 nM | 340 nM | 180 nM | 5020 nM |
| CC/C(=C(\c1ccc(O)cc1)c1ccc(OCCN(C)C)cc1)c1ccccc1 [AFIMOXIFENE] |  |  |  |  | 150 nM |  |  |
| CCCCN(C)C(=O)CCCCCCCCCC[C@@H]1Cc2cc(O)ccc2[C@H]2CC[C@]3(C)[C@@H](O)CC[C@H]3[C@H]12 |  |  |  |  | 930 nM |  |  |
| Nc1ccccc1NC(=O)c1ccc(CNC(=O)OCc2cccnc2)cc1 [ENTINOSTAT] |  |  |  |  | 350 nM |  |  |
